Measurements as given in patent US20230150981A1, “N-HETEROARYLALKYL-2-(HETEROCYCLYL AND HETEROCYCLYLMETHYL) ACETAMIDE DERIVATIVES AS SSTR4 AGONISTS” (Takeda Pharmaceutical Compnay Limited, priority 2020, published 2023).

What was measured:
SSTR4 [1] = molecular target: T1, SSTR4 (Homo sapiens, UniProt P31391); experiment: Inhibition of forskolin stimulated cAMP in CHO-K1 cells overexpressing SSTR4; type: cell-based; conditions: read-out: SSTR4 Activity pEC50 (converted)
T1 construct: host or cells: CHO-K1
T1 sequence (P31391 whole entry): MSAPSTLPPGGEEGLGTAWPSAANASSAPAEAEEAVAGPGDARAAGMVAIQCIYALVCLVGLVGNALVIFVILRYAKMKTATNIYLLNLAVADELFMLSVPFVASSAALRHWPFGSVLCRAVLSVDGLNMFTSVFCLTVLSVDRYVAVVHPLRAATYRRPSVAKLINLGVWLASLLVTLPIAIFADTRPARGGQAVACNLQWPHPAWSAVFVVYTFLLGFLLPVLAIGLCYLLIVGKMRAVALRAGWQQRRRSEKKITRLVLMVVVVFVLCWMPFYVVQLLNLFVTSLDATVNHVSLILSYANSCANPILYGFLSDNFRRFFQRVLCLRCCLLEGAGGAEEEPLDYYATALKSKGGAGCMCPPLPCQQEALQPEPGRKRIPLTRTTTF
Method in brief: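 CHO-K1 cells overexpressing SSTR4 treated 30 min at room temperature with compound in Krebs Ringer buffer containing 0.5% BSA, 300 μM IBMX and 350 nM forskolin. Intracellular cAMP measured by HTRF LANCE Ultra (665/615 nm); pEC50 values reported.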

SSTR4 [2] = molecular target: T1, SSTR4; experiment: SSTR4 I-125 somatostatin competition binding assay (CHO-K1 membranes); conditions: competition with I-125 somatostatin, membranes from CHO-K1 overexpressing SSTR4; read-out: SSTR4 Binding pIC50 (converted)
Method in brief: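 CHO-K1 membranes overexpressing SSTR4 (1 μg/well) were incubated 60 min at room temperature with compound and I-125 somatostatin (0.2 nM in the compound mix) in 25 mM HEPES pH 7.4, 10 mM MgCl2, 1 mM CaCl2, 0.5% BSA. Bound radioligand was collected on PEI-soaked filters and scintillation-counted, with results reported as pIC50.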

SSTR1 = molecular target: T2, SSTR1 (Homo sapiens, UniProt P30872); experiment: SSTR1 I-125 somatostatin competition binding assay for selectivity versus SSTR1 (CHO-K1 membranes); conditions: competition with I-125 somatostatin, membranes from CHO-K1 overexpressing SSTR1; read-out: SSTR1 Binding pIC50 (converted)
T2 construct: purchased Perkin Elmer ES-520-M400UA; host or cells: CHO-K1 membranes
T2 sequence (P30872 whole entry): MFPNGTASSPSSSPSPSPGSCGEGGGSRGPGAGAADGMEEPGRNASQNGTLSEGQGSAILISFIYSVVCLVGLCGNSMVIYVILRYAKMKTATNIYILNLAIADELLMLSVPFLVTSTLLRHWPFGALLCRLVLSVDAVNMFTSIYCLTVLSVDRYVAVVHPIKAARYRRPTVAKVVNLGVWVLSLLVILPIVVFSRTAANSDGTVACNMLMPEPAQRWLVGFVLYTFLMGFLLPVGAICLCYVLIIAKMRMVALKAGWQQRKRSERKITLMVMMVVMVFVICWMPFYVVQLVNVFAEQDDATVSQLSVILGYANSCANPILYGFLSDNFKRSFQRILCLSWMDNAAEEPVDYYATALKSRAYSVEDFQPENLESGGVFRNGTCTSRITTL
Method in brief: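 Competition binding used 10 μg CHO-K1 SSTR1 membranes and I-125 somatostatin, 0.4 nM in the compound mix before membranes were added. Buffer was 25 mM HEPES pH 7.4, 10 mM MgCl2, 1 mM CaCl2, 0.5% BSA. After 60 min at room temperature, bound tracer was filtered onto PEI-soaked filters and counted by scintillation; values are pIC50.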

## CN1CCC[C@H]1CC(=O)NC(C)(C)c1nccc2ccccc12 [Example 24, (S)-N-(2-(isoquinolin-1-yl)propan-2-yl)-2-(1-methylpyrrolidin-2-yl)acetamide]
SSTR4 [1]
  EC50: 0.0126 µM
SSTR4 [2]
  IC50: 0.2 µM
SSTR1
  IC50: 6.31 µM

## CCN1CCCC1CC(=O)NC(C)(C)c1nccc2occc12 (stereo not drawn) [Example 27, 2-(1-ethylpyrrolidin-2-yl)-N-(2-(furo[3,2-c]pyridin-4-yl)propan-2-yl)acetamide]
SSTR4 [1]
  EC50: 0.0316 µM
SSTR4 [2]
  IC50: 0.501 µM
SSTR1
  IC50: > 50.1 µM

## CN1CCCC1CC(=O)NC(C)(C)COc1ncccc1C(F)(F)F (stereo not drawn) [Example 28, N-(2-methyl-1-((3-(trifluoromethyl)pyridin-2-yl)oxy)propan-2-yl)-2-(1-methylpyrrolidin-2-yl)acetamide]
SSTR4 [1]
  EC50: 0.02 µM
SSTR4 [2]
  IC50: 0.251 µM
SSTR1
  IC50: 15.8 µM

## CN1CCCCC1CC(=O)NC(C)(C)c1ccc(Cl)cc1 (stereo not drawn) [Example 30, N-(2-(4-chlorophenyl)propan-2-yl)-2-(1-methylpiperidin-2-yl)acetamide]
SSTR4 [1]
  EC50: 0.0316 µM
SSTR4 [2]
  IC50: 0.126 µM
SSTR1
  IC50: 31.6 µM

## CN1CCC[C@H]1CC(=O)NC(C)(C)c1nccc2occc12 [Example 34, (S)-N-(2-(furo[3,2-c]pyridin-4-yl)propan-2-yl)-2-(1-methylpyrrolidin-2-yl)acetamide]
SSTR4 [1]
  EC50: 0.1 µM
SSTR4 [2]
  IC50: 0.316 µM
SSTR1
  IC50: > 50.1 µM

## CN1CCC[C@H]1CC(=O)NC(C)(C)c1ccc(Cl)cc1 [Example 35, (S)-N-(2-(4-chlorophenyl)propan-2-yl)-2-(1-methylpyrrolidin-2-yl)acetamide]
SSTR4 [1]
  EC50: 0.0631 µM
SSTR4 [2]
  IC50: 0.316 µM
SSTR1
  IC50: 12.6 µM

## CN1CCC[C@@H]1CC(=O)NC(C)(C)c1cc(Cl)ccc1Cl [Example 38, (R)-N-(2-(2,5-dichlorophenyl)propan-2-yl)-2-(1-methylpyrrolidin-2-yl)acetamide]
SSTR4 [1]
  EC50: 0.0631 µM
SSTR4 [2]
  IC50: 0.316 µM
SSTR1
  IC50: 25.1 µM

## CN1CCC[C@@H]1CC(=O)NC(C)(C)c1nccc2occc12 [Example 39, (R)-N-(2-(furo[3,2-c]pyridin-4-yl)propan-2-yl)-2-(1-methylpyrrolidin-2-yl)acetamide]
SSTR4 [1]
  EC50: 0.0501 µM
SSTR4 [2]
  IC50: 0.794 µM
SSTR1
  IC50: > 50.1 µM

## CN1CCC[C@@H]1CC(=O)NC(C)(C)c1ccc(Cl)cc1 [Example 40, (R)-N-(2-(4-chlorophenyl)propan-2-yl)-2-(1-methylpyrrolidin-2-yl)acetamide]
SSTR4 [1]
  EC50: 0.0501 µM
SSTR4 [2]
  IC50: 0.2 µM
SSTR1
  IC50: 20 µM

## Cc1cccc2c(C(C)(C)NC(=O)CC3CCCCN3C)noc12 (stereo not drawn) [Example 41, N-(2-(7-methylbenzo[d]isoxazol-3-yl)propan-2-yl)-2-(1-methylpiperidin-2-yl)acetamide]
SSTR4 [1]
  EC50: 0.00316 µM
SSTR4 [2]
  IC50: 0.0631 µM
SSTR1
  IC50: 6.31 µM

## Cc1cnc(C(C)(C)NC(=O)CC2CCCCN2C)c2ccccc12 (stereo not drawn) [Example 42, N-(2-(4-methylisoquinolin-1-yl)propan-2-yl)-2-(1-methylpiperidin-2-yl)acetamide]
SSTR4 [1]
  EC50: 0.000794 µM
SSTR4 [2]
  IC50: 0.00316 µM
SSTR1
  IC50: 0.631 µM

## CN1CCCCC1CC(=O)NC(C)(C)c1cc(Cl)ccc1Cl (stereo not drawn) [Example 45, N-(2-(2,5-dichlorophenyl)propan-2-yl)-2-(1-methylpiperidin-2-yl)acetamide]
SSTR4 [1]
  EC50: 0.0251 µM
SSTR4 [2]
  IC50: 0.158 µM
SSTR1
  IC50: 7.94 µM

## Cc1cccnc1OCC(C)(C)NC(=O)C[C@H]1CCCN1C [Example 46, (R)-N-(2-methyl-1-((3-methylpyridin-2-yl)oxy)propan-2-yl)-2-(1-methylpyrrolidin-2-yl)acetamide]
SSTR4 [1]
  EC50: 0.0126 µM
SSTR4 [2]
  IC50: 0.398 µM
SSTR1
  IC50: 25.1 µM

## Cc1cccnc1OCC(C)(C)NC(=O)C[C@@H]1CCCN1C [Example 47, (S)-N-(2-methyl-1-((3-methylpyridin-2-yl)oxy)propan-2-yl)-2-(1-methylpyrrolidin-2-yl)acetamide]
SSTR4 [1]
  EC50: 0.0126 µM
SSTR4 [2]
  IC50: 0.398 µM
SSTR1
  IC50: 25.1 µM

## CN1CCC[C@H]1CC(=O)NC(C)(C)COc1ncccc1C(F)(F)F [Example 48, (S)-N-(2-methyl-1-((3-(trifluoromethyl)pyridin-2-yl)oxy)propan-2-yl)-2-(1-methylpyrrolidin-2-yl)acetamide]
SSTR4 [1]
  EC50: 0.0251 µM
SSTR4 [2]
  IC50: 0.316 µM
SSTR1
  IC50: 15.8 µM

## CN1CCC[C@@H]1CC(=O)NC(C)(C)COc1ncccc1C(F)(F)F [Example 49, (R)-N-(2-methyl-1-((3-(trifluoromethyl)pyridin-2-yl)oxy)propan-2-yl)-2-(1-methylpyrrolidin-2-yl)acetamide]
SSTR4 [1]
  EC50: 0.0251 µM
SSTR4 [2]
  IC50: 0.2 µM
SSTR1
  IC50: 15.8 µM

## CCN1CCCC1CC(=O)NC(C)(C)COc1ncccc1C(F)(F)F (stereo not drawn) [Example 50, 2-(1-ethylpyrrolidin-2-yl)-N-(2-methyl-1-((3-(trifluoromethyl)pyridin-2-yl)oxy)propan-2-yl)acetamide]
SSTR4 [1]
  EC50: 0.0158 µM
SSTR4 [2]
  IC50: 0.126 µM
SSTR1
  IC50: 12.6 µM

## Cc1cccnc1OCC1(NC(=O)C[C@@H]2CCCN2C)CCC1 [Example 55, (S)-N-(1-(((3-methylpyridin-2-yl)oxy)methyl)cyclobutyl)-2-(1-methylpyrrolidin-2-yl)acetamide]
SSTR4 [1]
  EC50: 0.1 µM
SSTR4 [2]
  IC50: 1 µM
SSTR1
  IC50: 39.8 µM

## CCN1CCC[C@@H]1CC(=O)NC(C)(C)COc1ncccc1C(F)(F)F [Example 57, (R)-2-(1-ethylpyrrolidin-2-yl)-N-(2-methyl-1-((3-(trifluoromethyl)pyridin-2-yl)oxy)propan-2-yl)acetamide]
SSTR4 [1]
  EC50: 0.00398 µM
SSTR4 [2]
  IC50: 0.1 µM
SSTR1
  IC50: 12.6 µM

## C[C@H](NC(=O)CC1CCCCN1C)c1ccc(Cl)cc1 (stereo partly drawn) [Example 60, N-((S)-1-(4-chlorophenyl)ethyl)-2-(1-methylpiperidin-2-yl)acetamide]
SSTR4 [1]
  EC50: 0.1 µM
SSTR4 [2]
  IC50: 0.501 µM
SSTR1
  IC50: 25.1 µM

## CCN1CCCC1CC(=O)NC(C)(C)COc1ncccc1C (stereo not drawn) [Example 62, 2-(1-ethylpyrrolidin-2-yl)-N-(2-methyl-1-((3-methylpyridin-2-yl)oxy)propan-2-yl)acetamide]
SSTR4 [1]
  EC50: 0.0251 µM
SSTR4 [2]
  IC50: 0.251 µM
SSTR1
  IC50: 25.1 µM

## Cc1cc2ccccc2c(C(C)(C)NC(=O)C[C@H]2CCCN2C)n1 [Example 70, (R)-N-(2-(3-methylisoquinolin-1-yl)propan-2-yl)-2-(1-methylpyrrolidin-2-yl)acetamide]
SSTR4 [1]
  EC50: 0.00501 µM
SSTR4 [2]
  IC50: 0.0794 µM
SSTR1
  IC50: 1.26 µM

## Cc1cccnc1OCC1(NC(=O)C(C)C2CCCN2C)CC1 (stereo not drawn) [Example 71, N-(1-(((3-methylpyridin-2-yl)oxy)methyl)cyclopropyl)-2-(1-methylpyrrolidin-2-yl)propanamide]
SSTR4 [1]
  EC50: 0.0316 µM
SSTR4 [2]
  IC50: 0.251 µM
SSTR1
  IC50: 25.1 µM

## Cc1cccnc1OCC(C)(C)NC(=O)CC12CCCN1CCC2 [Example 77, N-(2-methyl-1-((3-methylpyridin-2-yl)oxy)propan-2-yl)-2-(tetrahydro-1H-pyrrolizin-7a(5H)-yl)acetamide]
SSTR4 [1]
  EC50: 0.0794 µM
SSTR4 [2]
  IC50: 3.16 µM
SSTR1
  IC50: > 50.1 µM

## CC(C)(COc1ncccc1C(F)F)NC(=O)CC12CCCN1CCC2 [Example 78, N-(1-((3-(difluoromethyl)pyridin-2-yl)oxy)-2-methylpropan-2-yl)-2-(tetrahydro-1H-pyrrolizin-7a(5H)-yl)acetamide]
SSTR4 [1]
  EC50: 0.251 µM
SSTR4 [2]
  IC50: 10 µM
SSTR1
  IC50: > 50.1 µM
